Data reported in US20260000642A1 (Tay Therapeutics Limited, priority 2022, published 2026).

Legend:
[1] = Plasma stability assay, rat plasma; assay type: in vitro ADME; conditions: 37° C., Method 1 (5 μM)
How it was run: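 Compound incubated in plasma at 37° C, either at 5 μM (0.5% DMSO) sampled at 0, 15, 30, 60, 120 min (Method 1) or at 10 μM (2% DMSO) sampled at 0, 15, 30, 60, 90, 120 min (Method 2). Quenched with cold acetonitrile plus internal standard; LC-MS/MS, % remaining relative to 0 min.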

[2] = Beagle dog PK study 2 (IV, HPβCD based formulation); assay type: in vivo
Experimental: The purpose of this study was to examine the pharmacokinetics of Example 101 in beagle dogs. […] An oral PK study was also undertaken in Lewis rats—see Experimental Method C.
Body weight was recoded prior to dosing, and detailed clinical observations were made prior to dosing and throughout the study, as needed.
78.646 mL of HPβCD (20% solution w/v) was then added with vortex and sonication.
Blood samples (˜0.3 mL) were collected according to a schedule (shown below) by venipuncture of peripheral veins except for the dosing vein, and EDTA-K2 was used as anticoagulant. Within 30 minutes of collection, the samples were centrifuged at approximately 2000× g for 10 minutes at 4° C. to obtain blood plasma. The plasma samples were immediately divided into two aliquots (˜75 μL each), transferred to a cryogenic vial, and stored in a freezer at −75±15° C. prior to analysis.
Blood samples were collected at 0.083, 0.25, 0.5, 1, 2, 4, 8, and 24 h following the initial dosing (0 h).
The experiments were conducted on a Shimadzu DGU-20A5R and AB API 5500+LC/MS/MS instrument with an Agilent Poroshell EC-C18 4 μm (50×2.1 mm) column. A gradient of 95% water (0.1% formic acid)/95% acetonitrile (0.1% formic acid) was used as the mobile phase. The sample injection volume was 1 μL, and the flow rate was 0.6 mL/min. The gathered data were used for pharmacokinetic calculations using T½, C0, AUClast, AUCinf, MRTinf, CI, Vss, and Number of Points for Regression as parameters.

[3] = Plasma stability assay, human plasma; assay type: in vitro ADME; conditions: 37° C., Method 1 (5 μM)
hydroxyproline = experiment: UUO model: kidney hydroxyproline by ELISA; assay type: in vivo, rat; conditions: UUO rats; 30 mg/kg; compared with sham and UUO + vehicle
From the text: (§1) Serum for blood biochemistry analysis was collected into centrifuge tubes without coagulant four hours after final dosing. Blood plasma samples from group 3 was collected into tubes with K2EDTA four hours after final dosing. At the conclusion of the study (end of the 14-day period), animals were euthanized. Kidney tissue was collected four hours after final dosing. Ligated side kidney was divided into three copies 1/3 fix into 10% formalin for H&E analysis, 1/3 into RNA for PCR analysis of tissue biomarkers Col1a1, TGF-b1, MCP-1, IL-1b, IL-6, IL-17, TNF-a, and Timp1, and 1/3 for hydroxyproline assay analyzed by ELISA. RNA was extracted from tissue using the RNeasy mini kit (Qiagen). RNA concentration was measured using a NanoDrop One Spectrophotometer (ThermoFisher) and converted to cDNA using a High-Capacity RNA-to-cDNA kit (Invitrogen). RT-PCR was performed to measure levels of mRNA of different targets using TaqMan® Gene Expression Master Mix and TaqMan® probe/primer sets on a QuantStudio 6 Real-Time PCR System (ThermoFisher). Fold change in target gene expression was determined using the ΔΔCt method.

BRD4 BD2 = target: T1, BRD4 BD2 (Homo sapiens, UniProt O60885); experiment: NanoBRET bromodomain assay, NanoLuc-BRD4-BD2 fusion vector in HEK293 cells; assay type: cell-based
T1 construct: HEK293 cells were transfected using NanoLuc-BRD4-BD1 or NanoLuc-BRD4-BD2 fusion vectors; host or cells: HEK293
From the text: Bromodomain Assay Procedure

IL-17A = experiment: Human PBMC assay, IL-17A by ELISA (CD2/CD3/CD28 bead stimulation); assay type: cell-based; conditions: 72 hours
Experimental: CD2, CD3, and CD28 antibody-coated beads from the T-cell activation/expansion kit (Miltenyi Biotec) were added to the PBMC at a bead-to-cell ratio of 1:2. The mixture of PBMCs and beads were seeded into the wells of the round-bottom 96-well plate at a concentration of 2×10^5 cells/well in a total volume of 200 μL. The cells were cultured for 72 hours at 37° C. and 5% CO2 and then supernatants were collected and IL-17A and IL-22 levels were measured by ELISA. […] The final compound concentration ranged from 30,000 nM to 0.005 nM and the final DMSO concentration per well was 0.3%. PBMCs were seeded at approximately […] in the wells of the 96-well tissue culture plate in a total volume of 190 μL. The plate was incubated for 1 hour at 37° C. and 5% CO2. […] The cells were then cultured for 24 hours at 37° C. and 5% CO2. The supernatant was collected and CXCL10 levels were measured by ELISA.

[4] = system: Col1a1, TGF-b1, MCP-1, IL-1b, IL-6, IL-17, TNF-a, and Timp1; experiment: UUO model: kidney tissue biomarker mRNA by RT-PCR; assay type: in vivo, rat; conditions: UUO rats; 30 mg/kg
From the text: as §1

## CNC(=O)c1[nH]c(C(=O)NC2CCC2)cc1O[C@@H](C)c1ccccc1 [Example 101, N^5-cyclobutyl-N^2-methyl-3-(1-phenylethoxy)-1H-pyrrole-2,5-dicarboxamide]
[1]
  Plasma Stability (% remaining at 120 minutes) Rat: 61%
[2]; PK study 2, IV 1 mg/kg
  AUClast/D, Mean: 977 (ng · h/mL)/(mg/kg)
  AUC—% Extrap_obs, Mean: 0.689%
  C0, Mean: 1875 ng/mL
  Cl_obs, Mean: 18.3 mL/min/kg
  Vssz_obs, Mean: 0.864 L/kg
[2]; PK study 2, IV 1 mg/kg, 24 h
  Average plasma concentration, Mean: BLOQ
[2]; PK study 2, IV 1 mg/kg, Test Animal 1
  Vssz_obs: 0.838 L/kg
[2]; PK study 2, IV 1 mg/kg, Test Animal 2
  Vssz_obs: 0.886 L/kg
[2]; PK study 2, IV 1 mg/kg, Test Animal 3
  Vssz_obs: 0.868 L/kg
[2]; beagle dogs, PK study 2, IV, 0.5 mg/mL in HPβCD (20% solution w/v)/DMSO (99/1)
  clinical observations after intravenous administration: soft feces
[3]
  Plasma Stability (% remaining at 120 minutes) Human: 93%
hydroxyproline
  hydroxyproline levels: No significant differences
BRD4 BD2
  selectivity for BDII relative to GSK620: greater than about two orders of magnitude
IL-17A
  IC50 for IL-17A relative to GSK620: substantially lower 1050
[4]
  expression of IL-17 relative to UUO + vehicle: limited effect
  expression of TNF-a relative to UUO + vehicle: limited effect
  tissue RNA level of Col1a1 relative to UUO + vehicle: reduced
  tissue RNA level of IL-1b relative to UUO + vehicle: reduced
  tissue RNA level of IL-6 relative to UUO + vehicle: reduced
  tissue RNA level of MCP-1 relative to UUO + vehicle: reduced
  tissue RNA level of TGB-b1 relative to UUO + vehicle: reduced
  tissue RNA level of Timp1 relative to UUO + vehicle: reduced
